Test results as given in patent US20260053764A1, “COMPOSITION FOR PREVENTING DETERIORATION IN COGNITIVE FUNCTION AND/OR IMPROVING COGNITIVE FUNCTION” (PHARMA FOODS INTERNATIONAL CO., LTD., priority 2020, published 2026).

System: health-associated QOL in a human
Test: SF-36 health-associated QOL assessment in clinical tests A and B
Assay type: in vivo
Parameters: key to General health / Vitality / Mental health: SF-36 subscale score; higher score = better health state
Conditions: for Everyday role function (mental) / Everyday role function (physical) / General health / Mental health / Physical function / Vitality: mean ± SD
Source text: SF-36 is known as a QOL assessment method associated with health, wherein SF-36 (MOS 36-Item Short-Form Health Survey) is a self-report type health state questionnaire that can rate eight health concepts (physical function, everyday role function (physical), body pain, general health, vitality, social function, everyday role function (mental) and mental health) as scores. A high score of each health concept (subscale) in SF-36 is interpreted as shown below. • Physical function . . . Capable of carrying out every type of activity including vigorous activity. • Everyday role function (physical) . . . There was no physical problem when carrying out work or normal activity during the past month. • Body pain . . . There was no body pain at all during the past month and usual work was not interfered by body pain at all. • General health . . . Health state is very good. • Vitality . . . Always full of energy during the past month. • Social life function . . . The usual social interactions with family, friends, neighbors and other companions were not at all interfered by any physical or psychological reason. • Everyday role function (mental) . . . There was no psychological problem when carrying out work or normal activity during the past month. • Mental health . . . The subject was in a calm, happy and peaceful mood during the past month.
Two types of placebo-controlled randomized double-blind two-group parallel comparison tests were carried out as clinical tests. […] Specifically, capsules comprising 100 mg of dextrin per capsule were used as the placebo food.
The screening examination was carried out to select 60 subjects for each test (a total of 120 subjects). MMSE (Mini Mental State Examination) is an examination for assessing the degree of progression of dementia or the like based on the score thereof with 30 as the perfect score, wherein dementia is suspected with a score of 23 or lower.
The total of 120 subjects were randomly divided into test A active group, test A placebo group, test B active group and test B placebo group with 30 subjects in each group. Each subject of the test A active group ingested two capsules of the active food, each subject of the test A placebo group ingested two capsules of the placebo food, each subject of the test B active group ingested one capsule of the active food and each subject of the test B placebo group ingested one capsule of the placebo food.
Each subject followed the schedule shown in the table below and ingested one or two of the assigned capsules together with water for 12 weeks from two weeks after the initial screening examination. All subjects had no particular instruction during the ingestion period and freely took their meals.
In addition, SF-36 was practiced as health-associated QOL assessment. Regarding SF-36, examination was carried out a total of four times, which are before starting test food ingestion, after four weeks of ingestion, after eight weeks of ingestion and after twelve weeks of ingestion.

[1] = test A 200 mg, before ingestion
[2] = test B 100 mg, before ingestion

NCCCC(=O)O [GABA, γ-aminobutyric acid]
Body pain: difference between active food and placebo food groups (test A 200 mg, 4 W): −2.1
Everyday role function (mental): difference between active food and placebo food groups (test A 200 mg, 4 W): 1.9
Everyday role function (physical): difference between active food and placebo food groups (test A 200 mg, 4 W): 2.8
General health: difference between active food and placebo food groups (test A 200 mg, 4 W): 0.1
Mental health: difference between active food and placebo food groups (test A 200 mg, 4 W): 3.6
Physical function: difference between active food and placebo food groups (test A 200 mg, 4 W): 0.4
Social life function: difference between active food and placebo food groups (test A 200 mg, 4 W): 1.1
Vitality: difference between active food and placebo food groups (test A 200 mg, 4 W): 5.5
Everyday role function (mental) (test A 200 mg, 4 w): 53.4 ± 6.0
Everyday role function (physical) (test A 200 mg, 4 w): 54.3 ± 3.5
General health (test A 200 mg, 4 w): 57.2 ± 7.9
Mental health (test A 200 mg, 4 w): 56.0 ± 6.7
Physical function (test A 200 mg, 4 w): 53.8 ± 6.2
Vitality (test A 200 mg, 4 w): 56.1 ± 7.3
Body pain: difference between active food and placebo food groups (test A 200 mg, 8 W): −2.9
Everyday role function (mental): difference between active food and placebo food groups (test A 200 mg, 8 W): 1.1
Everyday role function (physical): difference between active food and placebo food groups (test A 200 mg, 8 W): 3.3
General health: difference between active food and placebo food groups (test A 200 mg, 8 W): 2.5
Mental health: difference between active food and placebo food groups (test A 200 mg, 8 W): 3.5
Physical function: difference between active food and placebo food groups (test A 200 mg, 8 W): −0.7
Social life function: difference between active food and placebo food groups (test A 200 mg, 8 W): 0.9
Vitality: difference between active food and placebo food groups (test A 200 mg, 8 W): 4.8
Everyday role function (mental) (test A 200 mg, 8 w): 52.7 ± 5.7
Everyday role function (physical) (test A 200 mg, 8 w): 53.8 ± 4.0
General health (test A 200 mg, 8 w): 58.4 ± 7.4
Mental health (test A 200 mg, 8 w): 56.3 ± 7.3
Physical function (test A 200 mg, 8 w): 53.8 ± 6.1
Vitality (test A 200 mg, 8 w): 55.6 ± 8.3
Body pain: difference between active food and placebo food groups (test A 200 mg, 12 W): −0.3
Everyday role function (mental): difference between active food and placebo food groups (test A 200 mg, 12 W): 1.5
Everyday role function (physical): difference between active food and placebo food groups (test A 200 mg, 12 W): 2.1
General health: difference between active food and placebo food groups (test A 200 mg, 12 W): 0.2
Mental health: difference between active food and placebo food groups (test A 200 mg, 12 W): 3.5
Physical function: difference between active food and placebo food groups (test A 200 mg, 12 W): −1.0
Social life function: difference between active food and placebo food groups (test A 200 mg, 12 W): −1.1
Vitality: difference between active food and placebo food groups (test A 200 mg, 12 W): 5.4
Everyday role function (mental) (test A 200 mg, 12 w): 53.7 ± 5.4
Everyday role function (physical) (test A 200 mg, 12 w): 54.2 ± 4.2
General health (test A 200 mg, 12 w): 58.4 ± 6.5
Mental health (test A 200 mg, 12 w): 57.0 ± 5.9
Physical function (test A 200 mg, 12 w): 53.6 ± 7.2
Vitality (test A 200 mg, 12 w): 57.1 ± 6.7
Body pain: difference between active food and placebo food groups [1]: −0.7
Everyday role function (mental): difference between active food and placebo food groups [1]: −0.1
Everyday role function (physical): difference between active food and placebo food groups [1]: 1.3
General health: difference between active food and placebo food groups [1]: 0.0
Mental health: difference between active food and placebo food groups [1]: 0.3
Physical function: difference between active food and placebo food groups [1]: 0.5
Social life function: difference between active food and placebo food groups [1]: 2.1
Vitality: difference between active food and placebo food groups [1]: 2.9
Everyday role function (mental) [1]: 52.6 ± 6.3
Everyday role function (physical) [1]: 54.2 ± 4.3
General health [1]: 57.4 ± 7.4
Mental health [1]: 54.1 ± 8.4
Physical function [1]: 53.0 ± 6.1
Vitality [1]: 54.6 ± 7.6
scores regarding everyday role function (physical), GABA group compared to the placebo group (test A, after eight weeks of ingestion): significant improvement
scores regarding emotional health, GABA group compared to the placebo group (test A, after four weeks of ingestion): significant improvement
scores regarding energy, GABA group compared to the placebo group (test A, at least after four weeks of ingestion): significant improvement
Body pain: difference between active food and placebo food groups (test B 100 mg, 4 W): −0.3
Everyday role function (mental): difference between active food and placebo food groups (test B 100 mg, 4 W): 1.5
Everyday role function (physical): difference between active food and placebo food groups (test B 100 mg, 4 W): 2.3
General health: difference between active food and placebo food groups (test B 100 mg, 4 W): 1.2
Mental health: difference between active food and placebo food groups (test B 100 mg, 4 W): 3.3
Physical function: difference between active food and placebo food groups (test B 100 mg, 4 W): 1.8
Social life function: difference between active food and placebo food groups (test B 100 mg, 4 W): 0.9
Vitality: difference between active food and placebo food groups (test B 100 mg, 4 W): 3.0
Everyday role function (mental) (test B 100 mg, 4 w): 53.0 ± 5.5
Everyday role function (physical) (test B 100 mg, 4 w): 53.8 ± 4.2
General health (test B 100 mg, 4 w): 58.3 ± 7.4
Mental health (test B 100 mg, 4 w): 55.8 ± 5.8
Physical function (test B 100 mg, 4 w): 55.2 ± 3.7
Vitality (test B 100 mg, 4 w): 53.7 ± 7.6
Body pain: difference between active food and placebo food groups (test B 100 mg, 8 W): 0.9
Everyday role function (mental): difference between active food and placebo food groups (test B 100 mg, 8 W): 2.1
Everyday role function (physical): difference between active food and placebo food groups (test B 100 mg, 8 W): 3.4
General health: difference between active food and placebo food groups (test B 100 mg, 8 W): 1.2
Mental health: difference between active food and placebo food groups (test B 100 mg, 8 W): 3.3
Physical function: difference between active food and placebo food groups (test B 100 mg, 8 W): 2.2
Social life function: difference between active food and placebo food groups (test B 100 mg, 8 W): 3.2
Vitality: difference between active food and placebo food groups (test B 100 mg, 8 W): 4.0
Everyday role function (mental) (test B 100 mg, 8 w): 53.7 ± 3.9
Everyday role function (physical) (test B 100 mg, 8 w): 53.9 ± 3.5
General health (test B 100 mg, 8 w): 57.2 ± 7.5
Mental health (test B 100 mg, 8 w): 56.1 ± 5.8
Physical function (test B 100 mg, 8 w): 56.6 ± 2.4
Vitality (test B 100 mg, 8 w): 54.8 ± 7.2
Body pain: difference between active food and placebo food groups (test B 100 mg, 12 W): 1.8
Everyday role function (mental): difference between active food and placebo food groups (test B 100 mg, 12 W): 1.7
Everyday role function (physical): difference between active food and placebo food groups (test B 100 mg, 12 W): 1.0
General health: difference between active food and placebo food groups (test B 100 mg, 12 W): 1.0
Mental health: difference between active food and placebo food groups (test B 100 mg, 12 W): 2.9
Physical function: difference between active food and placebo food groups (test B 100 mg, 12 W): 1.3
Social life function: difference between active food and placebo food groups (test B 100 mg, 12 W): 0.6
Vitality: difference between active food and placebo food groups (test B 100 mg, 12 W): 2.8
Everyday role function (mental) (test B 100 mg, 12 w): 53.9 ± 4.3
Everyday role function (physical) (test B 100 mg, 12 w): 53.1 ± 4.2
General health (test B 100 mg, 12 w): 59.2 ± 6.2
Mental health (test B 100 mg, 12 w): 56.4 ± 5.6
Physical function (test B 100 mg, 12 w): 55.9 ± 3.1
Vitality (test B 100 mg, 12 w): 54.5 ± 7.4
Body pain: difference between active food and placebo food groups [2]: 1.3
Everyday role function (mental): difference between active food and placebo food groups [2]: 1.0
Everyday role function (physical): difference between active food and placebo food groups [2]: 0.7
General health: difference between active food and placebo food groups [2]: 0.1
Mental health: difference between active food and placebo food groups [2]: 2.7
Physical function: difference between active food and placebo food groups [2]: 3.0
Social life function: difference between active food and placebo food groups [2]: 3.7
Vitality: difference between active food and placebo food groups [2]: 2.7
Everyday role function (mental) [2]: 53.7 ± 4.7
Everyday role function (physical) [2]: 53.5 ± 3.9
General health [2]: 57.5 ± 7.1
Mental health [2]: 56.5 ± 5.4
Physical function [2]: 55.6 ± 3.5
Vitality [2]: 54.4 ± 7.6
scores regarding physical function, GABA group compared to the placebo group (test B, after eight weeks of ingestion): significant improvement
